Assays:
H3 receptor = target: T1, H3 receptor (Cavia porcellus, UniProt Q9JI35); assay: H3 receptor bioassay (functional assay), guinea pig ileal longitudinal muscle myenteric plexus; assay type: cell-based; details: antagonism of R-(α)-methylhistamine E/[A] curve, Schild's methods, electrically stimulated guinea pig ileum, variance ±0.15 log units; for Kb: read-out: pKB (functional assay) (converted)
T1 construct: the longitudinal muscle layer and adhering myenteric plexus was teased away; from tissue; host or cells: ileal longitudinal muscle with adhering myenteric plexus of male Dunkin-Hartley guinea pigs
T1 sequence (Q9JI35 whole entry): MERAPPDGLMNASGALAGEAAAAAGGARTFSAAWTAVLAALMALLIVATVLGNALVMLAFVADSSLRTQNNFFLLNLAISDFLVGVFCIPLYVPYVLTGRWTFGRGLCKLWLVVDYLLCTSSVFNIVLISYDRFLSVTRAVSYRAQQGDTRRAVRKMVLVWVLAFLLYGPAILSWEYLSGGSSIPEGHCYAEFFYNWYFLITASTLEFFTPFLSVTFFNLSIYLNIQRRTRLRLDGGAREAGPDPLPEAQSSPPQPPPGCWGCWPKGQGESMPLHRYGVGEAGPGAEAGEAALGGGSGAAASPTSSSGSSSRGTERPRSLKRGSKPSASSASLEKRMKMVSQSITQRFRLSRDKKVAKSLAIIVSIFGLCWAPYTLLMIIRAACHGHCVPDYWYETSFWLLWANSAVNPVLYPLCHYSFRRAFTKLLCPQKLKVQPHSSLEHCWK
Description: The biological activity of the compounds of the examples was measured using the ileal longitudinal muscle, myenteric plexus assay described by Paton and Aboo Zar (J. Physiol. 194, 13-33 (1968)). Male Dunkin-Hartley guinea pigs (250-300 g) were employed. Briefly, a 50 cm portion of ileum proximal to the caecum was removed, after discarding the terminal 20 cm. Ileal segments (3 cm) were cleaned by passing Krebs-Henseleit buffer containing 3 μM mepyramine gently through the ileum using a Pasteur pipette (size: 13.8 cm length, 0.65 cm diameter). To avoid unnecessary damage to the tissue, Krebs-Henseleit buffer was passed through the ileal segment, while it was lying horizontally on a petri dish. Therefore, the ileum was not over-distended and the buffer flowed through with ease. Each segment was then passed over a Pasteur pipette and the longitudinal muscle layer and adhering myenteric plexus was teased away using moist cotton wool, by stroking tangentially away from the mesenteric attachment. The tissues were suspended in 20 ml organ baths containing Krebs-Henseleit buffer at 37±1° C. and gassed with […]. The tissues were ligated to two parallel stainless steel wires, situated between two platinum electrodes (0.76 cm length, 0.06 cm diameter). All measurements were recorded isometrically (Grass FTO3 transducer). Following an initial loading tension of 1 g, the tissues were stimulated with electrical pulses at a frequency of 0.1 Hz and a pulse duration of 0.5msec, as described by Kosterlitz & Watt (1968). Initially, the tissues were stimulated at supramaximal (1.3 fold times maximal) voltage for a period of 30 min and then the tissues were washed and re-stimulated. A "sighter dose" of the selective histamine H3 -receptor agonist, R-(α)-methylhistamine(0.3 μM) (Arrang et al., 1987), was administered. Upon generation of response, the "sighter dose" was removed from the tissues by "washout" (6 washes over 60 min) and during this period the electrical stimulation was switched off. The tissues were then re-stimulated and allowed to stabilise prior to the addition of drug treatments, which were allocated on a randomised block basis to the organ baths. Following the incubation period, a single cumulative E/[A] curve was obtained. The experimental E/[A] curve data was expressed as the percentage inhibition of the peak height of electrically-stimulated contraction. Antagonist affinity values were calculated from the degree of rightward shift of the R-(α)-methylhistamine E/[A] curves using Schild's methods (Arunlatcshama & Schild, 1949).
(§1) Typical variance in the functional assay is ±0.15 log units. Typical variance in the binding assay is ±0.12 log units. This means that if the discrepancy between the two assays is greater than about 0.5 log units, then this difference on average is significant.

Histamine H3 = target: T2, Histamine H3 (Cavia porcellus, UniProt Q9JI35); assay: Histamine H3 radioligand binding assay, [3H]-R-α-methylhistamine, guinea pig ileum longitudinal muscle myenteric plexus membranes; details: 3 nM [3H]-R-α-methylhistamine, 165 min, 21±3° C., Cheng Prusoff, variance ±0.12 log units; for Ki: read-out: pK1 (binding assay) (converted)
T2 construct: ileum longitudinal muscle myenteric plexus membranes; from tissue; host or cells: ileum longitudinal muscle myenteric plexus membranes of male Dunkin Hartley guinea pigs
T2 sequence (Q9JI35 whole entry): as above
Description: Histamine H3 Radioligand Binding Assay
Male Dunkin Hartley guinea pigs (200-300 g) were used. The small intestine was rapidly removed (cut ~5 cm from caecum and 5 cm from stomach) and placed in ice-cold 20 mM Hepes-NaOH buffer (pH7.4 at 21±3° C.). The tissue was cut into ~10 cm segments, flushed through with ice-cold 20 mM Hepes-NaOH buffer and placed in a beaker containing fresh buffer at 4° C. 10 cm segments of ileum were threaded onto a glass pipette and the longitudinal muscle myenteric plexus was peeled away from the circular muscle using damp cotton-wool. Longitudinal muscle myenteric plexus was immediately placed in ice-cold Viaspan® solution (~100 ml for tissue from 3 guinea pigs) and placed in the refrigerator for 24 hours.
Pre-soaked tissue was weighed and minced with scissors. The tissue was then homogenised in Viaspan® using a polytron (Kinematica AG; PT-DA 3020/2TS, 3×~1-2 s). 50 ml of 500 mM Tris HCl (pH6.9 at 21±3° C.) was added to the tissue and the mixture centrifuged at 39,800×g for 12 min at 4° C. The supernatant was discarded and rehomogenised in 100 ml ice-cold 20 mM Hepes-NaOH buffer (pH7.4 at 21±3° C.) using a teflon-in-glass homogeniser (setting 10; 3×). The homogenate was recentrifuged at 39,800×g and the pellet resuspended in 20 mM Hepes-NaOH buffer (pH7.4 at 21±3° C.), to a tissue concentration of 50 mg.ml^-1, using a polytron (Brinkman, PT10, 3×~1 s).
Guinea pig ileum longitudinal muscle myenteric plexus membranes (400 μl) were incubated for 165 min at 21±3° C. in a final volume of 500 μl with 20 mM Hepes-NaOH buffer containing [^3 H]-R-α-methylhistamine (50 μl; 3 nM) and competing compound. Total and non-specific binding of [^3 H]-R-α-methylhistamine were defined using 50 μl of buffer and 50 μl of 10 μM thioperamide, respectively. The assay was terminated by rapid filtration through Whatman GF/B filters, presoaked (2 hr) in 0. 1% polyethyleneimine,using a Brandell Cell Harvester. The filters were washed (3×3 ml) with ice-cold 50 mM Tris-HCl (pH6.9 at 21±3° C.), transferred into scintillation vials, 5 ml liquid scintillation cocktail was added and after 4 hours the bound radioactivity was determined by counting (4 min) in a Beckman liquid scintillation counter.
Data are analysed using GraphPad prism and the general equation for a competition curve with variable Hill slope (nH).
Y=Non-specific binding+(Total binding-Non-specific binding)/1+10^((logIC.sbsp.50^-X).n.sbsp.H^)
X is the log concentration of competing compound, Y is the binding obtained at each concentration of X, pIC50 is the concentration of the competitor required to compete for half of the specific binding.
The IC50 is converted to the K1 using the Cheng Prusoff equation, […]
IC50 is the concentration of competitor required to compete for half the specific binding, L is the radioligand concentration used, KD is the equilibrium dissociation constant for the radioligand determined by saturation experiments.
as §1

Compound | Kb (H3 receptor) [nM] | pK1 (binding assay) (Histamine H3) | Ki (Histamine H3) [nM] | pKB (functional assay) (H3 receptor)
O=S(=O)(CCC1CCCCC1)NCCc1c[nH]cn1 [Example 23, N-[2-(4(5)-Imidazoyl)ethyl]-2-cyclohexylethanesulfonamide] | 1350 | 7.55 |  | 
O=S(=O)(NCCCCCc1c[nH]cn1)c1ccc2ccccc2c1 [Example 6, N-[5-(4(5)-Imidazoyl)pentyl]-2-naphthalenesulfonamide] | 110 | 7.50 |  | 
O=S(=O)(NCc1ccc(Br)cc1)N(CCCCc1c[nH]cn1)Cc1ccc(Br)cc1 [Example 67, N,N'-Di-[(4-bromophenyl)methyl]-N-[4-(4(5)-imidazoyl)butyl]-sulfamide] | 603 |  | 141 | 
O=S(=O)(NCCCCCCCCc1c[nH]cn1)NCc1ccc(Cl)cc1 [Example 39, N-[8-(4(5)-Imidazoyl)octyl]-N'-(4-chlorophenyl)methyl-sulfamide] | 42.7 |  | 15.8 | 
O=S(=O)(CCc1ccc(Cl)cc1)NCCCCCc1c[nH]cn1 [Example 54, N-[5-(4(5)-Imidazoyl)pentyl]-2-(4-chlorophenyl)ethanesulfonamide] | 15.8 |  | 10 | 
O=S(=O)(Cc1ccc2ccccc2c1)NCCc1c[nH]cn1 [Example 19, N-[2-(4(5)-Imidazoyl)ethyl]-2-naphthylmethanesulfonamide] | > 10000 |  | 1120 | 
O=S(=O)(NCCCCc1c[nH]cn1)NCc1ccc(C(F)(F)F)cc1 [Example 47, N-[4-(4(5)-Imidazoyl)butyl]-N'-(4-(trifluoromethyl)phenyl)methyl-sulfamide] | 3.31 |  | 2.69 | 
CN(Cc1ccc(Cl)cc1)S(=O)(=O)NCCCCc1c[nH]cn1 [Example 70] | 15.8 |  | 11.2 | 
O=S(=O)(Cc1ccc(Cl)cc1)NCCCCCc1c[nH]cn1 [Example 9, N-[5-(4(5)-Imidazoyl)pentyl]-(4-chlorophenyl)methanesulfonamide] | 46.8 | 7.94 |  | 
O=S(=O)(NCCCCc1c[nH]cn1)NCc1ccc(-c2ccccc2)cc1 [Example 49, N-[4-(4(5)-Imidazoyl)butyl]-N'-(4-biphenyl)methyl-sulfamide] | 4.79 | 8.12 |  | 
O=S(=O)(NCCCCCc1c[nH]cn1)NCc1ccc(Br)cc1 [Example 64, N-[5-(4(5)-Imidazoyl)pentyl]-N'-(4-bromophenyl)methyl-sulfamide] | 3.89 |  | 5.01 | 
O=S(=O)(Cc1ccc(Cl)cc1)NCCCCCCCc1c[nH]cn1 [Example 32, N-[7-(4(5)-Imidazoyl)heptyl]-(4-chlorophenyl)methanesulfonamide] | 43.7 | 7.44 |  | 
O=S(=O)(NCCCCCCCCc1c[nH]cn1)c1ccc2ccccc2c1 [Example 30, N-[8-(4(5)-Imidazoyl)octyl]-2-naphthalenesulfonamide] | 240 | 6.97 |  | 
O=S(=O)(NCCCCc1c[nH]cn1)NCc1ccc(Cl)cc1 [Example 13, N-[4-(4(5)-Imidazoyl)butyl]-N'-(4-chlorophenyl)methyl-sulfamide] | 2.09 | 8.56 |  | 
O=S(=O)(NCCCCCCc1c[nH]cn1)NCc1ccc(I)cc1 [Example 61, N-[6-(4(5)-Imidazoyl)hexyl]-N'-(4-iodophenyl)methyl-sulfamide] |  | 8.46 |  | 8.62
O=S(=O)(NCCCCc1c[nH]cn1)NCc1ccc(F)cc1 [Example 46, N-[4-(4(5)-Imidazoyl)butyl]-N'-(4-fluorophenyl)methyl-sulfamide] | 20 | 7.84 |  | 
O=S(=O)(NCCCCCCc1c[nH]cn1)NCc1ccc(Br)cc1 [Example 58] | 1.05 |  | 4.37 | 
O=S(=O)(NCCCCc1c[nH]cn1)NCCc1ccc(Cl)cc1 [Example 57, N-[4-(4(5)-Imidazoyl)butyl]-N'-2-(4-chlorophenyl)ethyl-sulfamide] | 11 |  | 14.5 | 
O=S(=O)(NCCCCCCc1c[nH]cn1)c1ccc2ccccc2c1 [Example 8] | 77.6 | 7.49 |  | 
COc1ccc(CNS(=O)(=O)NCCCCc2c[nH]cn2)cc1 [Example 48, N-[4-(4(5)-Imidazoyl)butyl]-N'-(4-methoxyphenyl)methyl-sulfamide] | 87.1 | 7.58 |  | 

Source: US6080871A, “Sulfonamides and sulfamides as H3 receptor antagonists” (James Black Foundation Limited, priority 1996, dated 2000)
